In patent publication US12037322B2, “AHR agonists” (Eli Lilly and Company, priority 2021, dated 2024) one finds EC50 data, which are given here for 21 compounds.

The target of the experiment is T1, hAHR (Homo sapiens, UniProt P35869).
T1 construct: expressed in transfected cells
T1 sequence (P35869 11-848): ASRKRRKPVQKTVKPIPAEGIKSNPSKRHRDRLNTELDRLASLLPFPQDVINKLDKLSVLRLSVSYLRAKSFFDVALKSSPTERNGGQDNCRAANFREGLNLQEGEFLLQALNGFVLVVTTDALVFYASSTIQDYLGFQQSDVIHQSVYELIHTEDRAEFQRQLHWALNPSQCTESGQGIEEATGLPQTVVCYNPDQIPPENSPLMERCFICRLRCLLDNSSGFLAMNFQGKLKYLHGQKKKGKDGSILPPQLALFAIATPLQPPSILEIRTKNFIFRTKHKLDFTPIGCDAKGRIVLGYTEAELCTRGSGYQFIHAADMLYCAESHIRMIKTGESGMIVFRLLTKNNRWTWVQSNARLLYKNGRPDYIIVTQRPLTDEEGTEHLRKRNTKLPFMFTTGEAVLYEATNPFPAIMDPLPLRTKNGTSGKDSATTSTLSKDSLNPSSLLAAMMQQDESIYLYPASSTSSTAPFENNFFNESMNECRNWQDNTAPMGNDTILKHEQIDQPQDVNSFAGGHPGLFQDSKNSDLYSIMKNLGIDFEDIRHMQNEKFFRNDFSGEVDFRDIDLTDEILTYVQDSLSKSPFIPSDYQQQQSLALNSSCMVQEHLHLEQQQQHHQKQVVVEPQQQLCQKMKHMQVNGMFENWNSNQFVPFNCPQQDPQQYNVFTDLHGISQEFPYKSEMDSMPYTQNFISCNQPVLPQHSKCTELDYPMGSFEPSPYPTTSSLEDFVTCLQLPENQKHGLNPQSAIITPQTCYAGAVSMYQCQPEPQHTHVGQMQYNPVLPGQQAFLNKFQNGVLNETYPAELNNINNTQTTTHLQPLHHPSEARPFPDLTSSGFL
The experiment is described as follows: hAHR nuclear translocation assay. The class given is cell-based. To be noted: Jump-In T-REx HEK293 cells expressing AhR-EGFP; 45 min incubation; ratio of EGFP intensity in nuclear over cytosol; 20-point curve. The procedure, abridged:
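HEK293 cells with doxycycline-induced AhR-EGFP fusion treated 45 min at 37° C with compound (20-point 1:2 series, 0.2% DMSO) in DMEM/0.1% BSA, then methanol-fixed. Nuclear-to-cytosolic EGFP ratio imaged by high-content microscopy and fitted to a 4-parameter logistic for agonist potency.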
Turning to `CC(C)C1CCc2c1cc(C(=O)Nc1ncc(F)cn1)c(=O)n2C` (single isomer, unassigned) [Example 113, N-(5-fluoropyrimidin-2-yl)-5-isopropyl-1-methyl-2-oxo-6,7-dihydro-5H-cyclopenta[b]pyridine-3-carboxamide], the EC50 is 11.2 nM.

`CC1CCc2c1c(O)c(C(=O)Nc1ccc(F)cn1)c(=O)n2C` (single isomer, unassigned) [Example 99, N-(5-Fluoro-2-pyridyl)-4-hydroxy-1,5-dimethyl-2-oxo-6,7-dihydro-5H-cyclopenta[b]pyridine-3-carboxamide]: the concentration for a half-maximal effect (EC50) amounted to 2.12 nM.

For the compound `CCC1CCc2c1cc(C(=O)Nc1ncc(F)cn1)c(=O)n2C` (single isomer, unassigned) [Example 114, 5-ethyl-N-(5-fluoropyrimidin-2-yl)-1-methyl-2-oxo-6,7-dihydro-5H-cyclopenta[b]pyridine-3-carboxamide], the EC50 turned out to be 2.44 nM.

Regarding `C[C@H]1CCc2c1cc(C(=O)Nc1nnc(C(F)(F)F)s1)c(=O)n2C` [Example 10, (5S)-1,5-Dimethyl-2-oxo-N-[5-(trifluoromethyl)-1,3,4-thiadiazol-2-yl]-6,7-dihydro-5H-cyclopenta[b]pyridine-3-carboxamide], the EC50 turned out to be 13.7 nM.

On to `Cn1c2c(cc(C(=O)Nc3ccc(F)cn3)c1=O)CC(C)(C)CC2` [Example 49, N-(5-Fluoro-2-pyridyl)-1,6,6-trimethyl-2-oxo-7,8-dihydro-5H-quinoline-3-carboxamide], for which the EC50 turned out to be 2.03 nM.

Regarding `CC1CCc2c1c(O)c(C(=O)Nc1ncc(F)cn1)c(=O)n2C` (single isomer, unassigned) [Example 95, N-(5-Fluoropyrimidin-2-yl)-4-hydroxy-1,5-dimethyl-2-oxo-6,7-dihydro-5H-cyclopenta[b]pyridine-3-carboxamide], the concentration for a half-maximal effect (EC50) is 1.21 nM.

Consider `CC1CCc2c1cc(C(=O)Nc1ncccc1F)c(=O)n2C` (stereo not drawn) [Example 5, N-(3-Fluoro-2-pyridyl)-1,5-dimethyl-2-oxo-6,7-dihydro-5H-cyclopenta[b]pyridine-3-carboxamide], for which the 50% effective concentration (EC50) worked out at 16.9 nM.

For `CC1CCc2c1cc(C(=O)Nc1ncc(C(F)(F)F)cn1)c(=O)n2C` (stereo not drawn) [Example 8, 1,5-Dimethyl-2-oxo-N-[5-(trifluoromethyl)pyrimidin-2-yl]-6,7-dihydro-5H-cyclopenta[b]pyridine-3-carboxamide], the EC50 worked out at 1.42 nM.

Regarding `Cn1c2c(cc(C(=O)Nc3ccccn3)c1=O)CC(C)(C)C2` [Example 45, 1,6,6-Trimethyl-2-oxo-N-(2-pyridyl)-5,7-dihydrocyclopenta[b]pyridine-3-carboxamide], the EC50 amounted to 16.2 nM.

In the case of `CC1CCc2c1c(O)c(C(=O)Nc1ncco1)c(=O)n2C` (single isomer, unassigned) [Example 35, 4-Hydroxy-1,5-dimethyl-N-oxazol-2-yl-2-oxo-6,7-dihydro-5H-cyclopenta[b]pyridine-3-carboxamide], the EC50 was found to be 4.42 nM.

For `COc1cnc(NC(=O)c2c(O)c3c(n(C)c2=O)CCC3C)nc1` (stereo not drawn) [Example 27, 4-Hydroxy-N-(5-methoxypyrimidin-2-yl)-1,5-dimethyl-2-oxo-6,7-dihydro-5H-cyclopenta[b]pyridine-3-carboxamide], the half-maximal effective concentration (EC50) came to 6.41 nM.

As for `CC1CCc2c1c(O)c(C(=O)Nc1ncc(C(F)(F)F)cn1)c(=O)n2C` (single isomer, unassigned) [Example 97, 4-Hydroxy-1,5-dimethyl-2-oxo-N-[5-(trifluoromethyl)pyrimidin-2-yl]-6,7-dihydro-5H-cyclopenta[b]pyridine-3-carboxamide], the EC50 was determined as 0.709 nM.

Take `CC1CCc2c1c(O)c(C(=O)Nc1ccc(F)cn1)c(=O)n2C` (single isomer, unassigned) [Example 100, N-(5-Fluoro-2-pyridyl)-4-hydroxy-1,5-dimethyl-2-oxo-6,7-dihydro-5H-cyclopenta[b]pyridine-3-carboxamide]: the half-maximal effective concentration (EC50) is 2.17 nM.

For `CC1CCc2c1cc(C(=O)Nc1nccc(C(F)(F)F)n1)c(=O)n2C` (stereo not drawn) [Example 7, 1,5-Dimethyl-2-oxo-N-[4-(trifluoromethyl)pyrimidin-2-yl]-6,7-dihydro-5H-cyclopenta[b]pyridine-3-carboxamide], the half-maximal effective concentration (EC50) was found to be 8.26 nM.

For `CC1CCc2c1c(O)c(C(=O)Nc1ncc(F)cn1)c(=O)n2C` (stereo not drawn) [Example 30, N-(5-Fluoropyrimidin-2-yl)-4-hydroxy-1,5-dimethyl-2-oxo-6,7-dihydro-5H-cyclopenta[b]pyridine-3-carboxamide], the EC50 came out at 1.62 nM.

Consider `CC1CCc2c1c(O)c(C(=O)Nc1ccsn1)c(=O)n2C` (single isomer, unassigned) [Example 38, 4-Hydroxy-N-isothiazol-3-yl-1,5-dimethyl-2-oxo-6,7-dihydro-5H-cyclopenta[b]pyridine-3-carboxamide], for which the EC50 is 1.01 nM.

On to `CC1CCc2c1cc(C(=O)Nc1nccs1)c(=O)n2C` (single isomer, unassigned) [Example 62, 1,5-Dimethyl-2-oxo-N-thiazol-2-yl-6,7-dihydro-5H-cyclopenta[b]pyridine-3-carboxamide], for which the EC50 was 1.84 nM.

For the compound `CC1CCc2c1c(O)c(C(=O)Nc1cnsc1)c(=O)n2C` (single isomer, unassigned) [Example 40, 4-Hydroxy-N-isothiazol-4-yl-1,5-dimethyl-2-oxo-6,7-dihydro-5H-cyclopenta[b]pyridine-3-carboxamide], the half-maximal effective concentration (EC50) turned out to be 2.37 nM.

As for `CC1CCc2c1c(O)c(C(=O)Nc1nccc(C(F)(F)F)n1)c(=O)n2C` (stereo not drawn) [Example 31, 4-Hydroxy-1,5-dimethyl-2-oxo-N-[4-(trifluoromethyl)pyrimidin-2-yl]-6,7-dihydro-5H-cyclopenta[b]pyridine-3-carboxamide], the EC50 came out at 2.4 nM.

Regarding `Cn1c2c(c(O)c(C(=O)Nc3ncc(F)cn3)c1=O)C(C)(C)CC2` [Example 43, N-(5-Fluoropyrimidin-2-yl)-4-hydroxy-1,5,5-trimethyl-2-oxo-6,7-dihydrocyclopenta[b]pyridine-3-carboxamide], the half-maximal effective concentration (EC50) came out at 0.973 nM.

In the case of `Cn1c2c(cc(C(=O)Nc3ccccc3)c1=O)CCCCC2` [Example 109, 1-Methyl-2-oxo-N-phenyl-6,7,8,9-tetrahydro-5H-cyclohepta[b]pyridine-3-carboxamide], the 50% effective concentration (EC50) amounted to 1.04 nM.

Usually EC50 stands for the concentration that produces a half-maximal response.
